Laboratory results: the supplement of paper PMC10307832

Experiments:
Assay in all cases: relative viability (nuclei count vs DMSO), 5 days (fraction); higher = more cells survive
[1] = compound: CC1=CC(=CC=C1)NC2=NC(=CS2)C3=CC=NC=C3 + Nc1nc2[nH]cc(CCc3ccc(C(=O)N[C@@H](CCC(=O)O)C(=O)O)cc3)c2c(=O)[nH]1 [Pemetrexed] (partner 0.2 µM)
Method in brief: (§1)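 Cells from lung cancer lines were seeded into 1536-well plates and, one day later, dosed by pin tool. Treatments were either a single drug or a fixed dose of an anchor drug with five library-drug doses (not always all listed) in √10 steps. After 5 days, nuclei were stained in a one-step fixation (final 0.05% Triton X-100, 1% formaldehyde, 1 ug/ml Hoechst) and counted on 4× images, and relative viability is the treated-to-vehicle nuclei ratio, as the median of duplicate plates.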

[2] = compound: CC1=CC(=CC=C1)NC2=NC(=CS2)C3=CC=NC=C3 + CC1(C)CCC(c2ccc(Cl)cc2)=C(CN2CCN(c3ccc(C(=O)NS(=O)(=O)c4ccc(N[C@H](CCN5CCOCC5)CSc5ccccc5)c(S(=O)(=O)C(F)(F)F)c4)cc3)CC2)C1 [Navitoclax] (partner 0.5 µM)
Method in brief: as §1

Masitinib + Phenformin = compound: Cc1ccc(NC(=O)c2ccc(CN3CCN(C)CC3)cc2)cc1Nc1nc(-c2cccnc2)cs1 [Masitinib] + N=C(N)NC(=N)NCCc1ccccc1 [Phenformin] (partner 250 µM)
Method in brief: as §1

[3] = compound: CC1=CC(=CC=C1)NC2=NC(=CS2)C3=CC=NC=C3 + CC(C)C[C@H](NC(=O)[C@H](Cc1ccccc1)NC(=O)c1cnccn1)B(O)O [Bortezomib] (partner 0.002 µM)
Method in brief: as §1

Row | Cell Line | relative viability ([1]; first compound 0.08 µM) | relative viability ([1]; first compound 0.253 µM) | relative viability ([1]; first compound 0.8 µM) | relative viability ([1]; first compound 2.53 µM) | relative viability ([1]; first compound 8 µM) | relative viability ([2]; first compound 0.08 µM) | relative viability ([2]; first compound 0.253 µM) | relative viability ([2]; first compound 0.8 µM) | relative viability ([2]; first compound 2.53 µM) | relative viability ([2]; first compound 8 µM) | relative viability (Masitinib + Phenformin; first compound 0.01 µM) | relative viability (Masitinib + Phenformin; first compound 0.03162 µM) | relative viability (Masitinib + Phenformin; first compound 0.1 µM) | relative viability (Masitinib + Phenformin; first compound 0.3162 µM) | relative viability (Masitinib + Phenformin; first compound 1 µM) | relative viability ([3]; first compound 0.08 µM) | relative viability ([3]; first compound 0.253 µM) | relative viability ([3]; first compound 0.8 µM) | relative viability ([3]; first compound 2.53 µM) | relative viability ([3]; first compound 8 µM)
1 | NCI-H1651 | 0.55 | 0.604 | 0.648 | 0.498 | 0.598 | 0.894 | 1.2 | 0.948 | 1.05 | 0.899 | 0.341 | 0.29 | 0.337 | 0.375 | 0.31 | 0.939 | 0.923 | 0.933 | 0.822 | 0.987
2 | NCI-H1666 | 0.787 | 0.749 | 0.603 | 0.738 | 0.674 | 0.82 | 0.818 | 0.535 | 0.578 | 0.417 | – | 0.527 | 0.637 | 0.487 | 0.56 | 0.503 | 0.553 | 0.41 | 0.388 | 0.409
3 | NCI-H1734 | 0.374 | 0.421 | 0.409 | 0.44 | 0.371 | 0.835 | 0.834 | 0.827 | 0.869 | 0.698 | 0.423 | 0.423 | 0.493 | 0.379 | 0.339 | 0.906 | 0.874 | 0.941 | 0.919 | 0.36
4 | NCI-H1755 | 0.35 | 0.445 | 0.393 | 0.401 | 0.397 | 0.923 | 0.937 | 0.846 | 0.824 | 0.679 | – | 0.51 | 0.545 | 0.597 | 0.581 | 0.937 | 0.886 | 0.832 | 0.819 | 0.572
5 | NCI-H1792 | 0.453 | 0.682 | 0.651 | 0.67 | 0.784 | 0.513 | 0.469 | 0.537 | 0.515 | 0.657 | 0.216 | 0.258 | 0.233 | 0.363 | 0.191 | 0.954 | 0.75 | 0.784 | 0.81 | 0.898
6 | NCI-H1915 | 0.496 | 0.493 | 0.508 | 0.508 | 0.401 | 0.747 | 0.791 | 0.84 | 0.779 | 0.811 | – | 0.367 | – | 0.401 | 0.349 | 0.976 | 0.973 | 0.944 | 0.846 | 0.762
7 | NCI-H1975 | 0.277 | 0.25 | 0.257 | 0.24 | 0.239 | 1.16 | 1.13 | 0.879 | 0.895 | 0.726 | 0.405 | 0.402 | 0.422 | – | 0.408 | 0.361 | 0.352 | 0.374 | 0.267 | 0.171
8 | NCI-H1993 | 0.507 | 0.517 | 0.618 | 0.547 | 0.578 | 0.724 | 0.718 | 0.818 | 0.775 | 0.793 | 0.5 | 0.469 | 0.603 | 0.523 | 0.451 | 1 | 1.03 | 0.885 | 0.894 | 0.993
9 | NCI-H2009 | 0.938 | 1.05 | 1 | 1 | 0.914 | 1.05 | 1.12 | 1.11 | 1.18 | 1.02 | 0.434 | 0.48 | 0.463 | 0.427 | 0.381 | 0.829 | 0.894 | 1.04 | 1 | 0.724
10 | NCI-H2023 | 0.211 | 0.18 | 0.274 | 0.195 | 0.187 | 0.958 | 0.961 | 0.945 | 0.916 | 0.715 | 0.409 | 0.371 | 0.397 | 0.429 | 0.317 | 0.899 | 0.873 | 0.959 | 0.949 | 0.543
11 | NCI-H2085 | 0.774 | 0.943 | 0.84 | 0.806 | 0.711 | 0.959 | 1.13 | 1.12 | 1.12 | 0.809 | 0.631 | 0.717 | 0.771 | 0.778 | 0.657 | 1.02 | 1.07 | 1.06 | 0.94 | 0.574
12 | NCI-H2087 | 0.637 | 0.623 | 0.591 | 0.63 | 0.711 | 0.963 | 0.996 | 0.945 | 0.799 | 0.82 | 0.347 | 0.393 | 0.534 | 0.5 | 0.393 | 0.708 | 0.825 | 0.844 | 0.666 | 0.3
13 | NCI-H2126 | 0.596 | 0.599 | 0.657 | 0.599 | 0.719 | 0.828 | 0.912 | 0.849 | 0.909 | 0.778 | 0.515 | 0.548 | 0.552 | 0.507 | 0.503 | 1.06 | 1.04 | 1.16 | 0.989 | 0.91
14 | NCI-H2228 | 0.38 | 0.346 | 0.323 | 0.343 | 0.208 | 0.866 | 1.07 | 0.622 | 0.969 | 0.655 | 0.347 | 0.302 | 0.335 | 0.398 | 0.215 | 0.892 | 0.761 | 0.771 | 0.925 | 0.714
15 | NCI-H2347 | 0.431 | 0.42 | 0.41 | 0.404 | 0.385 | 0.613 | 0.751 | 0.599 | 0.83 | 0.632 | 0.391 | 0.402 | 0.333 | 0.374 | 0.327 | 0.748 | 0.74 | 0.847 | 0.804 | 0.57
16 | NCI-H2405 | 0.921 | 0.985 | 0.999 | – | 0.903 | 0.732 | 0.802 | 0.655 | 0.883 | 0.673 | 0.379 | 0.366 | 0.399 | 0.459 | 0.247 | 0.929 | 0.87 | 0.87 | 0.774 | 0.903
17 | NCI-H3122 | 0.202 | 0.202 | 0.191 | 0.226 | 0.19 | 1.02 | 1.04 | 1.07 | 1.08 | 1.04 | – | 0.396 | – | 0.315 | 0.312 | 1.03 | 1.07 | 1.06 | 0.996 | 1.03
18 | PC-3 [JPC-3] | 0.909 | – | 1.15 | 0.961 | 1.05 | 0.791 | 0.671 | 0.719 | 0.705 | 0.681 | 0.47 | 0.429 | 0.47 | 0.46 | 0.37 | 0.743 | 0.821 | 0.577 | 0.636 | 0.361
19 | PC-14 | 0.144 | 0.131 | 0.141 | 0.134 | 0.136 | 0.922 | 1.01 | 0.892 | 0.933 | 0.439 | 0.458 | 0.633 | 0.572 | 0.507 | 0.506 | 0.966 | 0.899 | 0.685 | 0.909 | 0.499
20 | RERF-LC-KJ | 0.518 | 0.488 | 0.506 | 0.361 | 0.474 | 0.71 | 0.627 | 0.631 | 0.638 | 0.275 | 0.387 | 0.451 | 0.438 | 0.447 | 0.35 | 0.963 | 1.07 | 0.786 | 0.813 | 0.7
21 | SK-LU-1 | 0.906 | 1.03 | 0.691 | 0.997 | 0.937 | 0.837 | 1.22 | 0.636 | 1.06 | 1.35 | 0.488 | 0.466 | 0.55 | 0.687 | 0.497 | 0.905 | 1.07 | 0.884 | 1.3 | 1.19
22 | SW 1573 | 0.835 | 0.746 | 0.787 | 0.763 | 0.763 | 0.916 | 0.965 | 0.924 | 1.1 | 0.841 | 0.351 | 0.344 | 0.341 | 0.354 | 0.383 | 1.06 | 0.954 | 1.03 | 1.09 | 0.807
